Test results: patent US20230056604A1, “EPIDERMAL GROWTH FACTOR RECEPTOR TYROSINE KINASE INHIBITORS FOR THE TREATMENT OF CANCER” (AstraZeneca AB, priority 2020, published 2023)
“Also recorded” adds a separate entry of the source.

Tests used:
[1] = system: c-IAP1 and c-IAP2 mRNA (BIRC2 and BIRC3) in PC9, HCC2935 and NCI-H1975 cell lines; test: RNAseq gene expression of c-IAP1 and c-IAP2 mRNA in EGFRm cell lines after osimertinib treatment; assay type: cell-based, human; conditions: osimertinib acute (24 h) or chronic (14 d, DTP) vs untreated (DMSO), particularly chronic schedule
Description: FIG. 1: A subset of EGFRm NSCLC cell lines upregulate the expression of c-IAP1 and c-IAP2 mRNA after prolonged treatment with osimertinib. RNA sequencing (RNAseq) was performed in cells chronically treated with osimertinib (14 days) and compared to untreated (DMSO) or acutely treated (24 h) cells. Levels of BIRC2 mRNA (c-IAP1) and BIC3 mRNA (c-IAP2) were plotted on a log 2 scale.
PC9 is a cell line derived from human lung adenocarcinoma harbouring the activating mutation in EGFR del E746_A750 (Ex19-del). HCC2935 is a cell line derived from a pleural effusion of human lung adenocarcinoma harbouring the activating mutation in EGFR del E746_T751 (Ex19-del). HCC2279 is a cell line derived from a human lung adenocarcinoma bearing the activating mutation in EGFR del Em746_A750. HCC4006 is a cell line derived from a human lung adenocarcinoma bearing the activating mutation in EGFR del E746_A750. II-18 is a cell line derived from a human lung adenocarcinoma bearing the activating mutation in EGFR L858R. NCI-H1975 is a cell line derived from a human lung adenocarcinoma bearing the activating mutation in EGFR L858R and the gatekeeper mutation in EGFR T790M.
The purpose of this experiment was to use RNAseq to analyse gene expression in EGFRm cell lines treated both chronically (14 d) or acutely (24 h) with osimertinib.

[2] = system: EGFRm parental cells (HCC2279, HCC2935, HCC4006, II-18, NCI-H1975 and PC9); test: Incucyte Caspase-3/7 apoptosis assay in EGFRm parental cell lines; assay type: cell-based, human; conditions: panel of 6 EGFRm cell lines; osimertinib 160 nM + Smac mimetic 1 μM vs osimertinib monotherapy; 48 h, normalised to DMSO
Description: Data was calculated as the number of apoptotic events divided by cell confluence, and normalised to the values for DMSO control. Data are presented on a log scale to better visualize all cell lines.
FIG. 3: Multiple Smac mimetic molecules enhance osimertinib-induced apoptosis in NCI-H1975 and PC9 cells Caspase-3/7 activation, a direct readout of apoptotic initiation was measured after 48 h of treatment with either osimertinib monotherapy or its combination with 4 distinct Smac mimetic small molecules in NCI-H1975 and PC9 cells. Data was calculated as the number of apoptotic events divided by cell confluence, and normalised to the values for DMSO control.
PC9 is a cell line derived from human lung adenocarcinoma harbouring the activating mutation in EGFR del E746_A750 (Ex19-del). HCC2935 is a cell line derived from a pleural effusion of human lung adenocarcinoma harbouring the activating mutation in EGFR del E746_T751 (Ex19-del). […]
EGFRm parental cells (HCC2279, HCC2935, HCC4006, II-18, NCI-H1975 and PC9) were seeded in 96 well plated at a concentration of 5000 cells/well. […] Cells were then placed on the Incucyte S3 imaging system and both cell confluence and green fluorescence were measured, every 4 hours. After 96 h the experiment was terminated, and apoptosis values calculated by dividing the number of individual green points (apoptosis events) by cell confluence. […]

[3] = system: subcutaneous PC9 model in nude mice; test: PC9 xenograft tumour growth inhibition and re-growth in vivo
Description: Tumour growth inhibition following dosing of vehicle, osimertinib 25 mg/kg PO QD, AZD5582 2 mg/kg IV QW, or the combination of the two agents for 3 weeks followed by a period of re-growth in the subcutaneous, PC9 model in nude mice. Data are represented as mean ±SEM (n=8 per group) or as tumour volume of individual mouse.
Tumour growth inhibition following dosing of vehicle for 3 weeks, osimertinib 25 mg/kg PO QD for 6 weeks, or osimertinib 25 mg/kg PO QD for 3 weeks followed by the combination of osimertinib 25 mg/kg PO QD and AZD5582 2 mg/kg IV QW for 3 weeks followed by a period of re-growth in the subcutaneous, PC9 model in nude mice. Data are represented as mean±SEM (n=8 per group) or as tumour volume of individual mouse.

[4] = system: PC9, HCC2935 and NCI-H1975 cells; test: Incucyte cell confluence: formation and regrowth of osimertinib drug tolerant persister cells; assay type: cell-based, human
Description: HCC2935, NCI-H1975 and PC9 cells were treated with osimertinib, AZD5582 or the combination of the two agents for 10 days, after which time drug was removed to allow regrowth of the cells. Cell confluence was measured on the Incucyte imaging platform as a surrogate for cell number.
Representative images were taken from the cell growth experiments in PC9 and HCC2935 cell lines described in FIG. 4. Cells treated for 10 days with either osimertinib alone or osimertinib in combination with AZD5582, at which time drug was removed from 7 days.
FIG. 6: osimertinib DTPs are sensitive to Smac mimetic treatment. Parental PC9 cells were treated with the combination of osimertinib and 4 distinct Smac mimetics to determine the rate of DTP survival and re-growth. Cell confluence was measured on the Incucyte imaging platform as a surrogate for DTP number.
PC9 is a cell line derived from human lung adenocarcinoma harbouring the activating mutation in EGFR del E746_A750 (Ex19-del). HCC2935 is a cell line derived from a pleural effusion of human lung adenocarcinoma harbouring the activating mutation in EGFR del E746_T751 (Ex19-del). HCC2279 is a cell line derived from a human lung adenocarcinoma bearing the activating mutation in EGFR del Em746_A750. HCC4006 is a cell line derived from a human lung adenocarcinoma bearing the activating mutation in EGFR del E746_A750. […]

Structure (SMILES)	mRNAs coding for c-IAP1 and c-IAP2 (BIRC2 and BIRC3) expression [1]	number of apoptotic events (Caspase-3/7 activation) normalised to cell confluence [2]	tumour growth inhibition / regrowth after treatment release ([3]; minimal residual disease: osimertinib 21 days, then osimertinib + AZD5582 2 mg/kg IV QW 21 days, vs osimertinib alone 42 days, 2 mg/kg)	tumour growth inhibition / regrowth after treatment release ([3]; osimertinib 25 mg/kg PO QD + AZD5582 2 mg/kg IV QW for 21 days vs osimertinib alone for 21 days)	percentage confluency (a measure of cell growth) ([4]; PC9, HCC2935 or NCI-H1975, 10 days combination with osimertinib (500 nM) then drug removal, vs 10 days osimertinib alone)	regrowth of cells after drug removal (representative images) ([4]; PC9 and HCC2935, 10 days osimertinib + AZD5582, then drug removed for 7 days)
C=CC(=O)Nc1cc(Nc2nccc(-c3cn(C)c4ccccc34)n2)c(OC)cc1N(C)CCN(C)C [osimertinib, N-(2-{2-dimethylaminoethyl-methylamino}-4-methoxy-5-{[4-(1-methylindol-3-yl)pyrimidin-2-yl]amino}phenyl) prop-2-enamide]	significantly upregulated					
CN[C@@H](C)C(=O)N[C@H](C(=O)N1CCC[C@H]1C(=O)N[C@H]1c2ccccc2C[C@H]1OCC#CC#CCO[C@@H]1Cc2ccccc2[C@@H]1NC(=O)[C@@H]1CCCN1C(=O)[C@@H](NC(=O)[C@H](C)NC)C1CCCCC1)C1CCCCC1 [AZD5582]		enhances osimertinib-induced apoptosis	delay of regrowth; also recorded: enhances the antiproliferative effects of osimertinib	delay of regrowth; also recorded: enhances the antiproliferative effects of osimertinib	lower percentage confluency; also recorded: enhances the antiproliferative effects of osimertinib	fail to regrow after drug removal
